Article PMC11943913, “Peptides from Harpadon nehereus Bone Ameliorate Sodium Palmitate-Induced HepG2 Lipotoxicity by Regulating Oxidative Stress and Lipid Metabolism” (Marine Drugs, 2025)

Columns and labels:
[1] = system: FASN and ACC1; conditions: ref [39]; cited from earlier work
Source text: Lipid metabolism, including lipolysis, lipogenesis, and lipid transport, determines the lipid levels in the body. FASN and ACC are two significant lipid synthetases that play a key role in lipid accumulation. PANa primarily influences hepatic lipogenesis through the modulation of FASN and ACC1 expression. […] CPT1 and ATGL are closely linked to lipolysis and are crucial for regulating lipid levels. ...

[2] = system: HepG2 cells; assay: CCK-8 proliferation of HepG2 with peptide alone; assay type: cell-based; conditions: concentrations below 200 µM, 24 h, CCK-8, n = 3
Experimental: HepG2 cells were cultured in DMEM supplemented with penicillin at a concentration of 100 U/mL, streptomycin at 100 μg/mL, and fetal bovine serum at a volume ratio of 10% under conditions of 37 °C and 5% CO2. A total of 2 ×10^4 cells per well were seeded into a 96-well plate for overnight culture. The upper layer of medium was carefully aspirated, and 200 μL of different concentrations of oligopeptide solution (50 μM, 100 μM, 200 μM) prepared with cell complete medium was added to each well. Twenty-four hours later, the proliferation rate of the cells was measured according to the instructions of the CCK-8 kit, and the appropriate concentration of oligopeptide was screened out.

[3] = system: HepG2 cells; assay: Cell viability of PANa-induced HepG2 (CCK-8); assay type: cell-based; conditions: 100 μM peptide 4 h, then 350 µM PANa 24 h, **** p < 0.0001 vs PANa group
Experimental: A total of 2 × 10^4 cells/well were inoculated in 96-well plates for culture at 37 °C and 5% CO2. Following this period, the cells received treatment with 200 μL medium containing 100 μM LR-7, KA-8, or PG-7 for 4 h before adding 350 μM PANa to each well. After incubation for an additional 24 h, the cell proliferation rates were assessed using the CCK-8 assay protocols.

[4] = system: catalase (CAT); assay: Catalase (CAT) activity in HepG2; assay type: cell-based; conditions: 100 μM peptide 4 h, then 350 µM PANa 24 h, HepG2
Experimental: (§1) After incubation, cells were treated with 100 μM of peptides for 4 h. After removing the media, PANa was added for 24 h of incubation. The levels of catalase (CAT), superoxide dismutase (SOD), glutathione peroxidase (GSH-Px), malondialdehyde (MDA), triacylglycerol (TG), total cholesterol (TCHO), low-density lipoprotein cholesterol (LDL-C), and high-density lipoprotein cholesterol (HDL-C) in the supernatant were determined according to the kit instructions.

[5] = system: superoxide dismutase (SOD); assay: Superoxide dismutase (SOD) activity in HepG2; assay type: cell-based; conditions: 100 μM peptide 4 h, then 350 µM PANa 24 h
Experimental: as §1

[6] = system: glutathione peroxidase (GSH-Px); assay: Glutathione peroxidase (GSH-Px) activity in HepG2; assay type: cell-based; conditions: 100 μM peptide 4 h, then 350 µM PANa 24 h, HepG2
Experimental: as §1

[7] = system: malondialdehyde (MDA); assay: Malondialdehyde (MDA) level in HepG2; assay type: cell-based; conditions: 100 μM peptide 4 h, then 350 µM PANa 24 h, HepG2
Experimental: as §1

[8] = system: Nrf2; assay: Western blot Nrf2; assay type: cell-based; conditions: 100 μM peptide 4 h, then 350 µM PANa 24 h, HepG2, Western blot
Experimental: (§2) After treatment, cells were washed with pre-chilled PBS and lysed with ice-cold lysis buffer for 30 min. The supernatant was collected after centrifugation at 12,000× g for 10 min and stored at −80 °C. Protein concentration was determined using a BCA protein assay kit. Equal amounts of protein (20–40 µg) were subjected to 10% sodium dodecyl sulfate-polyacrylamide gel electrophoresis (SDS-PAGE) and transferred to PVDF membranes (Polyvinylidene Fluoride, Merck, Darmstadt, Germany). Non-specific binding sites were blocked with 5% bovine serum albumin (BSA) solution at room temperature for 1 h, followed by incubation with the primary antibody at 4 °C overnight. After washing with TBST (3 times, 10 min/time), the membrane was incubated with the secondary antibody at room temperature for 1 h. Following further washing with TBST (3 times, 10 min/time), antibody signals were detected using a Western blot development system. The dilution ratios for the internal reference protein, vascular endothelial injury-related proteins, and oxidative stress-related pathway proteins were prepared according to the manufacturer’s instructions.

[9] = system: HO-1; assay: Western blot HO-1; assay type: cell-based; conditions: 100 μM peptide 4 h, then 350 µM PANa 24 h, HepG2, Western blot
Experimental: as §2

[10] = system: NQO1; assay: Western blot NQO1; assay type: cell-based; conditions: 100 μM peptide 4 h, then 350 µM PANa 24 h, HepG2, Western blot
Experimental: as §2

[11] = system: triacylglycerol (TG); assay: Triacylglycerol (TG) level in HepG2; assay type: cell-based; conditions: 100 μM peptide 4 h, then 350 µM PANa 24 h, HepG2
Experimental: as §1

[12] = system: total cholesterol (TCHO); assay: Total cholesterol (TCHO) level in HepG2; assay type: cell-based; conditions: 100 μM peptide 4 h, then 350 µM PANa 24 h, HepG2
Experimental: as §1

[13] = system: low-density lipoprotein cholesterol (LDL-C); assay: LDL-C level in HepG2; assay type: cell-based; conditions: 100 μM peptide 4 h, then 350 µM PANa 24 h, HepG2
Experimental: as §1

[14] = system: high-density lipoprotein cholesterol (HDL-C); assay: HDL-C level in HepG2; assay type: cell-based; conditions: 100 μM peptide 4 h, then 350 µM PANa 24 h, HepG2
Experimental: as §1

[15] = system: fatty acid synthase (FASN); assay: Western blot FASN; assay type: cell-based; conditions: 100 μM peptide 4 h, then 350 µM PANa 24 h, HepG2, Western blot
Experimental: as §2

[16] = system: phosphorylated ACC1 (p-ACC1); assay: Western blot p-ACC1; assay type: cell-based; conditions: 100 μM peptide 4 h, then 350 µM PANa 24 h, HepG2, Western blot
Experimental: as §2

[17] = system: proteins associated with lipid metabolism; assay: Western blot, proteins associated with lipid metabolism overall; assay type: cell-based; conditions: 100 μM peptide 4 h, then 350 µM PANa 24 h, HepG2, Western blot
Experimental: as §2

[18] = system: pancreatic lipase; assay: Pancreatic lipase activity inhibition; assay type: biochemical; conditions: compared with orlistat (positive control); 4-nitrophenyl palmitate substrate, lipase 1.2 mg/mL, peptide 100 μM, Tris-HCl pH 8.0, 37 °C, absorbance 405 nm, three parallel wells
Experimental: A working substrate solution consisting of 4-nitrophenyl palmitate dissolved in sodium acetate solution (containing 1% Triton-X 100, 100 mL, 5 mM, pH 5.0) was prepared. Enzyme powder was dissolved in Tris-HCl buffer (pH 8.0, 37 °C). This mixture was incubated at 4 °C for 2 h before centrifugation at 5000 r/min for 5 min, yielding the supernatant used to prepare a pancreatic lipase solution of 1.2 mg/mL. Orlistat at a concentration of 1 mg/mL in Tris-HCl buffer (pH 8.0; 37 °C) was prepared alongside DMSO to reach a concentration of 350 μg/mL peptide solution. The peptide solution of 100 μM was prepared with Tris-HCl buffer (pH = 8.0, 37 °C). The absorbance was measured at 405 nm, and the inhibition rate was measured in parallel with three holes due to the methodology of Franco et al..

[19] = system: HUVECs; conditions: earlier work, ref [21]; cited from earlier work
Source text: Harpadon nehereus, a nutrient-rich marine species indigenous to the Indo-Pacific region, remains underexploited despite its significant collagen content (18–22% wet weight). Harpadon nehereus serves as an economical source that is rich in protein and trace elements. Its proteins and derived peptides offer numerous health benefits including immune enhancement, blood pressure reduction, cardiovascular protection, and inflammation mitigation. In prior research, we successfully isolated three novel peptides LALFVPR (LR-7), KLHDEEVA (KA-8), and PSRILYG (PG-7) from the enzymatic hydrol ... || Studies have confirmed that oxidative stress and lipid metabolism disorders are significant factors in the occurrence and development of hyperlipidemia Dietary intervention is a crucial auxiliary strategy for the management of hyperlipidemia. Collagen peptides have been extensively used as a nutritional intervention in the treatment of various diseases due to their notable antioxidant, anti-inflammatory, and hypolipidemic activities. […] Anoth ...

[20] = system: Nrf2 pathway; conditions: ref [34]; cited from earlier work
Source text: PANa triggers the buildup of reactive oxygen species (ROS) within cells, resulting in oxidative stress and subsequent cellular injury. Antioxidant enzymes are essential for alleviating oxidative stress.

Compound	expression levels of FASN and ACC1 / lipid accumulation [1]	effect on apoptosis of HepG2 cells [2]	cell viability of PANa-exposed HepG2 [3]	CAT activity, reversal of PANa-induced reduction [4]	SOD activity, reversal of PANa-induced reduction [5]	GSH-Px activity, reversal of PANa-induced reduction [6]	MDA level [7]	Nrf2 protein level [8]	HO-1 protein level [9]	NQO1 protein level [10]	TG, effect on PANa-induced increase [11]	TCHO, effect on PANa-induced increase [12]	LDL-C, effect on PANa-induced increase [13]	HDL-C, effect on PANa-induced decrease [14]	FASN expression vs PANa group [15]	p-ACC1 level vs PANa group [16]	abnormal expression of proteins associated with lipid metabolism by PANa (FASN, ATGL, CPT1, p-AMPKα) [17]	inhibition of pancreatic lipase activity [18]	effect on angiotensin II-induced dysfunctions within HUVECs [19]	hepatic steatosis, oxidative stress, inflammatory cell infiltration and fibrosis via Nrf2 pathway [20]
Oc1ccc2c(c1)OCO2 [sesamol (SEM), sesamol]	influence lipid accumulation by decreasing the expression levels of FASN and ACC1																			
PSRILYG [PG-7, peptide from Harpadon nehereus bone collagen enzymatic hydrolysates]		no effect on the apoptosis of HepG2 cells	notably enhanced the cell viability	effectively reversed the reduction	effectively reversed the reduction	effectively reversed the reduction	significantly decreased the MDA levels	significant increases in the levels	significant increases in the levels	significant increases in the levels	notably reversed the PANa-induced increases	notably reversed the PANa-induced increases	notably reversed the PANa-induced increases	notably reversed	FASN expression decreased	p-ACC1 levels increased significantly	significantly reversed	less effective than orlistat	improve angiotensin II-induced dysfunctions within HUVECs	
KLHDEEVA [KA-8, peptide from Harpadon nehereus bone collagen enzymatic hydrolysates]		no effect on the apoptosis of HepG2 cells	notably enhanced the cell viability	effectively reversed the reduction	effectively reversed the reduction	effectively reversed the reduction	significantly decreased the MDA levels	significant increases in the levels	significant increases in the levels	significant increases in the levels	notably reversed the PANa-induced increases	notably reversed the PANa-induced increases	notably reversed the PANa-induced increases	notably reversed	FASN expression decreased	p-ACC1 levels increased significantly	significantly reversed	comparable results to orlistat		
COc1ccc([C@@H]2CC(=O)c3c(O)cc(O)cc3O2)cc1O [hesperetin]																				reduce hepatic steatosis, alleviate oxidative stress, decrease inflammatory cell infiltration, and mitigate fibrosis through activation of the Nrf2 pathway
